Assay results as given in ChEMBL document CHEMBL3600310 (J Med Chem, 2015).
The source made the active and inactive calls. No cut-off for these calls is given here.

Columns and labels:
[1] = molecular target: DNA topoisomerase 2-alpha (Homo sapiens) (UniProt P11388); assay: Inhibition of Top2alpha (unknown origin)-mediated pBR322 DNA cleavage using ethidium bromide staining at 100 uM after 30 mins by electrophoresis analysis
HCT-116 [2] = assay: Cytotoxicity against human HCT116 cells after 72 hrs by MTT assay; format: functional, cell-based; conditions: HCT-116, 72 h
MDA-MB-435 = assay: Cytotoxicity against human MDA-MB-435 cells after 72 hrs by MTT assay; format: functional, cell-based; conditions: MDA-MB-435, 72 h
A549 = assay: Cytotoxicity against human A549 cells after 72 hrs by MTT assay; format: functional, cell-based; conditions: A549, 72 h
[3] = molecular target: T1, DNA topoisomerase 1 (Homo sapiens) (UniProt P11387); assay: Inhibition of Top1 (unknown origin)-mediated pBR322 DNA cleavage using ethidium bromide staining at 200 uM after 15 mins by electrophoresis analysis
T1 sequence (whole entry): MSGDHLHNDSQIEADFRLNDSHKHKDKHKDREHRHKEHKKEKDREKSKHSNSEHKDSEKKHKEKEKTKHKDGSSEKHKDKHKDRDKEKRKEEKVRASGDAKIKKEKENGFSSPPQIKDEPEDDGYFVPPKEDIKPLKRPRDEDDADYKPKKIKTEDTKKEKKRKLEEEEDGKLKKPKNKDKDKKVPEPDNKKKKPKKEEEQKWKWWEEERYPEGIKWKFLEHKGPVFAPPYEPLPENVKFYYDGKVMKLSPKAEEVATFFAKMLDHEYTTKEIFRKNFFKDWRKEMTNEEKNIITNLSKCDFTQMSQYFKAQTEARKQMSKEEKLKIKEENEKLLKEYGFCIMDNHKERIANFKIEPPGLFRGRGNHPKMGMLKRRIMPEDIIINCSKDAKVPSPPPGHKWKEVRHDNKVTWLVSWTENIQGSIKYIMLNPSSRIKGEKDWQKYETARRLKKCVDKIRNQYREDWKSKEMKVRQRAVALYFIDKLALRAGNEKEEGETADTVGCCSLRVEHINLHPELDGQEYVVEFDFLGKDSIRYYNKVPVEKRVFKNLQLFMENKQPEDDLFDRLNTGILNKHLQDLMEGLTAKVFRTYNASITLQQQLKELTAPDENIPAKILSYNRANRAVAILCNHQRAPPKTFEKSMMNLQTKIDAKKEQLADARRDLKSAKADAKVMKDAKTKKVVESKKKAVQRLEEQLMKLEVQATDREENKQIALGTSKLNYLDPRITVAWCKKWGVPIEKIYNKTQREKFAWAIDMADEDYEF

[4] = molecular target: T1, DNA topoisomerase 1 (Homo sapiens); assay: Inhibition of Top1 (unknown origin)-mediated pBR322 DNA cleavage using ethidium bromide staining at 100 uM after 15 mins by electrophoresis analysis
[5] = molecular target: T1, DNA topoisomerase 1 (Homo sapiens); assay: Inhibition of Top1 (unknown origin)-mediated pBR322 DNA cleavage using ethidium bromide staining at 50 uM after 15 mins by electrophoresis analysis
[6] = Cytotoxicity against human MV-3 cells after 72 hrs by MTT assay; format: functional, cell-based; conditions: MV-3, 72 h
[7] = Cytotoxicity against human Bel7404 cells after 72 hrs by MTT assay; format: functional, cell-based; conditions: BEL-7404, 72 h
HCT-116 [8] = assay: Antitumor activity against human HCT116 cells xenografted in BALB/C mouse assessed as tumor growth inhibition at 2 mg/kg, ip for 5 days; format: functional, organism-based
NCI-H446 = assay: Cytotoxicity against human NCI-H446 cells after 72 hrs by MTT assay; format: functional, cell-based; conditions: NCI-H446, 72 h
[9] = Cytotoxicity against human SKHEP1 cells after 72 hrs by MTT assay; format: functional, cell-based; conditions: SK-HEP1, 72 h
K562 = assay: Cytotoxicity against human K562 cells after 72 hrs by MTT assay; format: functional, cell-based; conditions: K562, 72 h
PC-3 = assay: cells; conditions: Homo sapiens, PC-3, 72 h
Description: Cytotoxicity against human PC3 cells after 72 hrs by MTT assay

[10] = Cytotoxicity against human SW579 cells after 72 hrs by MTT assay; format: functional, cell-based; conditions: SW579, 72 h
Tubulin = assay: Inhibition of brain tubulin (unknown origin) polymerization measured up to 15 to 30 mins; parameters: species or system Homo sapiens

DNA topoisomerase 2-alpha (Homo sapiens), sequence (P11388 whole entry): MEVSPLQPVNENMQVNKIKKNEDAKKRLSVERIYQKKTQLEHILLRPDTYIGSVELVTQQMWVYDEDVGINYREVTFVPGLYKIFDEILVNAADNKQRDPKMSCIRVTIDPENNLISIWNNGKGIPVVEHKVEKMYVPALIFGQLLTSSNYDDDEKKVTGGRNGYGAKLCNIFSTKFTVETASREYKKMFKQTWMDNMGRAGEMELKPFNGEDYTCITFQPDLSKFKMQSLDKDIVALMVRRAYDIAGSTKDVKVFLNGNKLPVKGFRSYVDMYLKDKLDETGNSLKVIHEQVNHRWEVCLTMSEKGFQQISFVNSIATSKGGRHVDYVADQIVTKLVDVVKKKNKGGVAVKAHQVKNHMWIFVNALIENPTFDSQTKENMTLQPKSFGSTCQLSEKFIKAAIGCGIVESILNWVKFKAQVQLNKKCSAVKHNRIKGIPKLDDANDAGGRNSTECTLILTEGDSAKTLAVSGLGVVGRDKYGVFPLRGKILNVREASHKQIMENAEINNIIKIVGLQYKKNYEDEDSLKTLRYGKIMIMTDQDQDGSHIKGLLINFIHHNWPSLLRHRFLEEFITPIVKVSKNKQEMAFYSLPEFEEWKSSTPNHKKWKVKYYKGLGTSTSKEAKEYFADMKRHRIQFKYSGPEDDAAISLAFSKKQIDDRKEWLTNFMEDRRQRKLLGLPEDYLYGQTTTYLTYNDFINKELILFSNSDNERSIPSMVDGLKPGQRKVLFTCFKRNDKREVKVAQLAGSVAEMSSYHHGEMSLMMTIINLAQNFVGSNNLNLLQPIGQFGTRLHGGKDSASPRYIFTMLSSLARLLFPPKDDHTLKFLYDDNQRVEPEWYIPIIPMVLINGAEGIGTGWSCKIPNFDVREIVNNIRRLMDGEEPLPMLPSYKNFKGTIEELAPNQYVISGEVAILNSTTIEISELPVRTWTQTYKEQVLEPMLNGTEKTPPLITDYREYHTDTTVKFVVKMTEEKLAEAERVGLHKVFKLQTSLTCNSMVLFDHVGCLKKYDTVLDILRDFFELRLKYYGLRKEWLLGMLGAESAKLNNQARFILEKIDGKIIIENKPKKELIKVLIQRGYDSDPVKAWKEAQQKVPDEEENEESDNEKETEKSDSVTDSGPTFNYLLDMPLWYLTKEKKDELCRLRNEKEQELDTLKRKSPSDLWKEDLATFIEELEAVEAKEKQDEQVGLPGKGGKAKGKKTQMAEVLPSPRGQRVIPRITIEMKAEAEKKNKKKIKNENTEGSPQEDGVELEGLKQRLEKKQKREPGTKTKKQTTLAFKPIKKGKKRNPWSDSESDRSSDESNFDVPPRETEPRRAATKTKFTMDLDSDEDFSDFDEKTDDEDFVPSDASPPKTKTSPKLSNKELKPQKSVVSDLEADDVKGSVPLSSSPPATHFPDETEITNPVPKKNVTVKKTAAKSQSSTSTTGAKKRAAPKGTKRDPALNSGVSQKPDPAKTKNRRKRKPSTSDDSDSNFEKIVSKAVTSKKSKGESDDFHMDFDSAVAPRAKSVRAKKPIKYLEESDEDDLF

Structure (SMILES) | inhibition [1] | IC50 (HCT-116 [2]) | IC50 (MDA-MB-435) | IC50 (A549) | inhibition [3] | inhibition [4] | inhibition [5] | IC50 [6] | IC50 [7] | growth inhibition (GI) (HCT-116 [8]) | IC50 (NCI-H446) | IC50 [9] | IC50 (K562) | IC50 (PC-3) | IC50 [10] | IC50 (Tubulin)
Nc1ccc2c(c1)C(=O)N1CCc3c([nH]c4ccc(O)cc34)C1O2 (stereo not drawn) | inactive | 0.5 µM | 0.6 µM | 29.1 µM | Active |  |  |  |  |  |  |  |  |  |  | 
O=C1c2cc(Cl)ccc2SC2c3[nH]c4ccccc4c3CCN12 (stereo not drawn) |  | 29.1 µM | 38.8 µM | 2.1 µM |  | Active | Active |  |  |  |  |  |  |  |  | 
O=C1c2cc(O)ccc2SC2c3[nH]c4ccc(O)cc4c3CCN12 (stereo not drawn) | Active | < 0.003 µM | < 0.003 µM | 0.7 µM | Active | Active | Active | 0.14 µM | < 0.003 µM | Active | 16.6 µM | 0.49 µM | < 0.003 µM | < 0.003 µM | 3.5 µM | 
O=C1c2cc(F)ccc2SC2c3[nH]c4ccccc4c3CCN12 (stereo not drawn) |  | > 200 µM | > 200 µM | > 200 µM |  | Active | Active |  |  |  |  |  |  |  |  | 
COc1ccc2[nH]c3c(c2c1)CCN1C(=O)c2ccccc2S(=O)(=O)C31 (stereo not drawn) | Active | > 200 µM | > 200 µM | > 200 µM | Active | Active | Active |  |  |  |  |  |  |  |  | 
COc1ccc2c(c1)C(=O)N1CCc3c([nH]c4ccc(O)cc34)C1S2 (stereo not drawn) | inactive | < 0.003 µM | < 0.003 µM | 0.3 µM | Active | Active | Active | 1.2 µM | < 0.003 µM |  | > 200 µM | 2.2 µM | < 0.003 µM | 0.43 µM | 7.3 µM | 
O=C1c2ccccc2S(=O)(=O)C2c3[nH]c4ccccc4c3CCN12 (stereo not drawn) |  | > 200 µM | > 200 µM | > 200 µM |  | Active | Active |  |  |  |  |  |  |  |  | 
O=C1c2cccnc2SC2c3[nH]c4ccccc4c3CCN12 (stereo not drawn) |  | > 200 µM | > 200 µM | > 200 µM |  | Active | Active |  |  |  |  |  |  |  |  | 
O=C1c2ccccc2S(=O)(=O)C2c3[nH]c4ccc(O)cc4c3CCN12 (stereo not drawn) | inactive | 46 µM | > 200 µM | > 200 µM |  |  |  |  |  |  |  |  |  |  |  | 
COc1ccc2[nH]c3c(c2c1)CCN1C(=O)c2cc(Br)ccc2SC31 (stereo not drawn) |  | 2.7 µM | 84.7 µM | 8.2 µM |  | Active | Active |  |  |  |  |  |  |  |  | 
O=C1c2cc(O)ccc2OC2c3[nH]c4ccc(O)cc4c3CCN12 (stereo not drawn) | Active | 1.2 µM | 0.8 µM | 3.8 µM | Active |  |  | 1.2 µM | 0.06 µM | Active | > 200 µM | 1.1 µM | < 0.003 µM | 0.84 µM | 5.15 µM | 
COc1ccc2[nH]c3c(c2c1)CCN1C(=O)c2cc(F)ccc2SC31 (stereo not drawn) |  | 6.5 µM | 3.9 µM | 1.2 µM |  | Active | Active |  |  |  |  |  |  |  |  | 
O=C1c2ccccc2OC2c3[nH]c4ccc(O)cc4c3CCN12 (stereo not drawn) | inactive | 2.3 µM | 1.4 µM | 4 µM | Active |  |  |  |  |  |  |  |  |  |  | 
O=C1c2ccccc2SC2c3[nH]c4ccccc4c3CCN12 (stereo not drawn) | inactive |  |  |  | Active | Active | Active |  |  |  |  |  |  |  |  | 
CC[C@@]1(O)C(=O)OCc2c1cc1n(c2=O)Cc2cc3ccccc3nc2-1 [CAMPTOTHECIN] |  | 0.09 µM | 1 µM | 0.1 µM |  |  |  | < 0.003 µM | 0.14 µM |  | > 200 µM | 0.96 µM | < 0.003 µM | 2.5 µM | 0.71 µM | 
COc1ccc2[nH]c3c(c2c1)CCN1C(=O)c2cc(Cl)ccc2SC31 (stereo not drawn) |  | 2.7 µM | 44.1 µM | 2.3 µM |  | Active | Active |  |  |  |  |  |  |  |  | 
COc1ccc2c(c1)C(=O)N1CCc3c([nH]c4ccc(OC)cc34)C1S2 (stereo not drawn) |  | 20 µM | 122 µM | 11.3 µM |  | Active | Active |  |  |  |  |  |  |  |  | 
O=C1c2cc(F)ccc2SC2c3[nH]c4ccc(O)cc4c3CCN12 (stereo not drawn) |  | < 0.003 µM | < 0.003 µM | 1.2 µM |  | Active | Active |  |  |  |  |  |  |  |  | 
CCC1=C[C@@H]2CN(C1)Cc1c([nH]c3ccccc13)[C@@](C(=O)OC)(c1cc3c(cc1OC)N(C)[C@H]1[C@@](O)(C(=O)OC)[C@H](OC(C)=O)[C@]4(CC)C=CCN5CC[C@]31[C@@H]54)C2 [VINORELBINE] |  |  |  |  |  |  |  |  |  |  |  |  |  |  |  | 2 µM
